Assay: Anti-bacterial activity: MHK measured against a panel of bacterial strains
Assay type: cell-based
Conditions: in relation to at least one of the listed strains (strain not specified); read-out: MHK
Experimental: The MHK (μg/ml) of those compounds was measured in relation to the following bacterial strains: S. aureus ATCC 29213, S. aureus 16, E. faecalis ATCC 29212, E. faecium vanA E25-1, H. influenzae 11, E. coli ATCC 25922, M. catarrhalis 117, S. pneumoniae ATCC 49619. Examples 5–6, 8, 11–16, 18–26, 30, 44–45, 47–58 have an MHK<=0.125 in relation to at least one of the listed strains.

SMILES | MIC [µg/mL]
COc1ccc2ncnc(OCC3CCC(NCc4ccc5c(c4)OCCO5)CC3)c2c1 (stereo not shown) [Example 42, (2,3-Dihydro-benzo[1,4]dioxin-6-ylmethyl)-[4-(6-methoxy-quinazolin-4-yloxymethyl)-cyclohexyl]-amine] | ≤ 0.5
COc1ccc2ncnc(OCC3CCC(NCc4cnc5ccccc5n4)CC3)c2c1 (stereo not shown) [Example 43, [4-(6-Methoxy-quinazolin-4-yloxymethyl)-cyclohexyl]-quinoxalin-2-ylmethyl-amine] | ≤ 0.5
COc1ccc2ncnc(OCC3CCC(NCC(=O)Nc4ccccn4)CC3)c2c1 (stereo not shown) [Example 46, 2-[4-(6-Methoxy-quinazolin-4-yloxymethyl)-cyclohexylamino]-N-pyridin-2-yl-acetamide] | ≤ 0.5
COc1ccc2nccc(C(O)CN3CCC=C(CNCc4ccc5c(c4)OCCO5)C3)c2c1 (stereo not shown) [Example 59, 2-(5-{[(2,3-Dihydro-benzo[1,4]dioxin-6-ylmethyl)-amino]-methyl}-3,6-dihydro-2H-pyridin-1-yl)-1-(6-methoxy-quinolin-4-yl)-ethanol] | ≤ 0.5

Second part, the compound after the results:

MIC [µg/mL] | SMILES
≤ 0.125 | COc1ccc2nccc(C(O)CN3CCC[C@@H](CNCc4ccc5nsnc5c4)C3)c2c1 (mixture of isomers) [Example 6, (3S)-2-(3-{[(Benzo[1,2,5]thiadiazol-5-ylmethyl)-amino]-methyl}-piperidin-1-yl)-(1RS)-(6-methoxy-quinolin-4-yl)-ethanol]
≤ 0.125 | COc1ccc2nccc(C(O)CN3CCC[C@@H](CNCc4ccc5c(c4)NC(=O)CO5)C3)c2c1 (mixture of isomers) [Example 5, (3S)-6-[({1-[2-Hydroxy-2-(6-methoxy-quinolin-4-yl)-ethyl]-piperidin-(3RS)-ylmethyl}-amino)-methyl]-4H-benzo[1,4]oxazin-3-one]
≤ 0.5 | COc1ccc2nccc(C(O)CN3CCC[C@@H](CNCc4ccc5c(c4)OCCCO5)C3)c2c1 (mixture of isomers) [Example 7]
≤ 0.5 | COc1ccc2nccc(C(O)CN3CCC[C@@H](CNCc4ccc5c(c4)OCO5)C3)c2c1 (mixture of isomers) [Example 9, 2-((3S)-{[(2,3-Dihydro-benzo[1,3]dioxo-6-ylmethyl)-amino]-methyl}-piperidin-1-yl)-(1RS)-(6-methoxy-quinolin-4-yl)-ethanol]
≤ 0.5 | COc1ccc2nccc(C(O)CN3CCCC(NCc4ccc5c(c4)OCCO5)CC3)c2c1 (racemic) [Example 34]
≤ 0.5 | COc1ccc2nccc(C(O)CN3CCOC(CNCc4ccc5c(c4)OCCO5)C3)c2c1 (racemic) [Example 61, 2-((2RS)-{[(2,3-Dihydro-benzo[1,4]dioxin-6-ylmethyl)-amino]-methyl}-morpholin-4-yl)-(1RS)-(6-methoxy-quinolin-4-yl)-ethanol]
≤ 0.125 | COc1ccc2nccc(CCC3CCC(NCc4ccc5c(c4)NC(=O)CO5)CC3)c2c1 (stereo not shown) [Example 30, 6-({4-[2-(6-Methoxy-quinolin-4-yl)-ethyl]-cyclohexylamino}-methyl)-4H-benzo[1,4]oxazin-3-one]
≤ 0.125 | COc1ccc2ncnc(OCC3CCC(NCc4ccc5c(c4)NC(=O)CO5)CC3)c2c1 (stereo not shown) [Example 44, 6-{[4-(6-Methoxy-quinazolin-4-yloxymethyl)-cyclohexylamino]-methyl}-4H-benzo[1,4]oxazin-3-one]
≤ 0.125 | COc1ccc2ncnc(OCC3CCC(NC/C=C/c4ccccc4)CC3)c2c1 (stereo not shown) [Example 45, [4-(6-Methoxy-quinazolin-4-yloxymethyl)-cyclohexyl]-(3-phenyl-allyl)-amine]

Same assay, conditions: read-out: MHK

SMILES | MIC [µg/mL]
COc1ccc2nccc([C@@H](O)CN3CCC[C@@H](CNCc4ccc5c(c4)OCCO5)C3)c2c1 [Example 8, 2-((3S)-{[(2,3-Dihydro-benzo[1,4]dioxin-6-ylmethyl)-amino]-methyl}-piperidin-1-yl)-(1S)-(6-methoxy-quinolin-4-yl)-ethanol] | ≤ 0.125
COc1ccc2ncnc(CCC3(O)CCC(NCc4ccc5c(c4)OCO5)CC3)c2c1 (stereo not shown) [Example 10, 4-[(Benzo[1.3]dioxol-5-ylmethyl)-amino]-1-[2-(6-methoxy-quinazolin-4-yl)-ethyl]-cyclohexanol] | ≤ 0.5
CCOc1ccc2nccc(CCC3(O)CCC(NCc4ccc5c(c4)OCO5)CC3)c2c1 (stereo not shown) [Example 17] | ≤ 0.5
